Values of other authors in US8859001B2, “Fenoldopam formulations and pro-drug derivatives” (priority 2007, dated 2014).
Where a name gives a salt, the structure may show the parent alone. Read-outs that look alike come from different tables or passages of the source.

Assays:
[1] = system: human lymphoma and leukemia lines (Jurkat, HuT-78, K-562, Daudi, Raji); conditions: for effectiveness in killing lymphoma and leukemia: selective dopamine D1/5 receptor agonists tested
[2] = IV infusion
patients = conditions: clinical use
[3] = system: TCR-activated human normal peripheral T-cells
[4] = system: resting (i.e., not TCR-activated) human normal peripheral T-cells; conditions: in vitro
mice = conditions: mouse, in vivo, po

Q: For Cl.NC[C@@H]1O[C@H](c2ccccc2)Cc2c1ccc(O)c2O (racemic) [A 68930 hydrochloride, cis-(±)-1-(aminomethyl)-3,4-dihydro-3-phenyl-1H-2-benzopyran-5,6-diol hydrochloride], which “effectiveness in killing lymphoma and leukemia” value [1] is on record?
A: effective in killing lymphoma and leukemia

Q: Which results are given for Oc1ccc(C2CNCCc3c2cc(O)c(O)c3Cl)cc1 (racemic) [Fenoldopam mesylate, 6-chloro-2,3,4,5-tetrahydro-1-(4-hydroxyphenyl)-1H-3-benzazepine-7,8-diol, methanesulfonate]?
A: solubility (HCl/KCl buffer pH 1.5): 9.1 mg/mL; solubility (buffer pH 6.8): 0.13 mg/mL; solubility in ethanol (ethanol): sparingly soluble; solubility in methanol (methanol): sparingly soluble; solubility (pH 7.5): 0.06 mg/mL; solubility in propylene glycol (propylene glycol): soluble; solubility in water (water): sparingly soluble; half life T1/2 [2]: ~5 min; patients reporting the major side effects (headache, flushing and nausea) (patients): ≤ 10%; time to start of measurable cell death after exposure [1]: 1 to 60 min; death of cancer cells on in vitro exposure ([1]; 1 mM-0.01 mM fenoldopam mesylate, five lymphoma/leukemia lines): death of all, or the vast majority of, these cancer cells; death of cells (number of live and dead cells) ([1]; cancer cells, after 72 hr, concentrations within 0.1 mM-0.1 nM): over 98%; killing of TCR-activated T-cells ([3]; in vitro): kills potently a substantial proportion; death of cells (number of live and dead cells) ([3]; normal TCR-activated T-cells, after 72 hr, concentrations within 0.1 mM-0.1 nM): over 98%; effect on resting T-cells [4]: hardly affecting; affinity (α2-adrenoceptors): moderate affinity; affinity (D2-like receptors): no significant affinity; affinity (α1 adrenoceptors): no significant affinity; affinity (β adrenoceptors): no significant affinity; affinity (5HT1 receptors): no significant affinity; affinity (5HT2 receptors): no significant affinity; affinity (muscarinic receptors): no significant affinity

Q: With Br.Oc1cc2c(cc1O)C(c1ccccc1)CNCC2 (racemic) [SKF 38393 hydrobromide, (±)-1-phenyl-2,3,4,5-tetrahydro-(1H)-3-benzazepine-7,8-diol hydrobromide] as the compound, how does the “effectiveness in killing lymphoma and leukemia” value [1] read?
A: effective in killing lymphoma and leukemia

Q: What does the source list for Cl.NC[C@@H]1O[C@H](C23CC4CC(CC(C4)C2)C3)Cc2c1ccc(O)c2O [A 77636 hydrochloride, (1R-cis)-1-(aminomethyl)-3,4-dihydro-3-tricyclo[3.3.1.13,7]dec-1-yl-[1H]-2-benzopyran-5,6-diol hydrochloride]?
A: relative effectiveness as cancer cell killer ([1]; compared among dopamine receptor agonists): the most effective cancer killers; effectiveness in killing lymphoma and leukemia [1]: effective in killing lymphoma and leukemia; relative effectiveness as killer of TCR-activated T-cells ([3]; compared among highly selective D1R agonists): the most effective killers of TCR-activated T-cells

Q: Which LD50 (mice) does the source give for CCOC(=O)C(C)O (stereo not shown) [Ethyl lactate, 2-hydroxypropanoic acid ethyl ester] here?
A: higher than 5 g/kg
